Results published in patent US10335418B2, “Methods and compositions for treating metabolic syndrome” (Topokine Therapeutics, Inc., priority 2011, dated 2019).

Key:
[1] = Serum lipids on day 28, (db-/db-) mice; type: in vivo
Experimental: (§1) Methods: Mice were obtained from Jackson Laboratories and acclimated to the facility. At about 5 weeks of age, mice were prospectively randomized into groups and assigned to the treatment conditions shown in FIG. 1. Topical treatments were applied in a thin film to the right flank skin without occlusive dressings; subcutaneous injections were also administered to the right flank. […] They were housed in the same room, in 11 cages according to group, and fed ad libitum. Skin tissue was sampled and serum lipids tested on day 28. Tissue was fixed in formalin and stained with hematoxylin and eosin.
FIG. 5 charts the triglyceride and total cholesterol results (mg/dl) for the topical treatment conditions as follows: Group 1=C, 3=D, 4=E, 5=F, 6=G, 10=H, 11=I.

[2] = Weight gain and condition, 4-week repeat-dose trial in (db-/db-) mice; type: in vivo
Experimental: A randomized, controlled, repeat-dose, 4-week trial was conducted on (db−/db−) mice, which are defective for the leptin receptor (Jackson Laboratories). These mice are genetically obese, dyslipidemic, and diabetic.
as §1

[3] = Projected systemic dose, mouse (FIG. 12); type: in vivo; conditions: topical, 100% serum bioavailability assumed
Description: (§2) FIG. 12 compares various topical doses of latanoprost in mouse, rat, and human, with respect to projected systemic dose. All calculations assume once-daily dosing and 100% serum bioavailability. The derivation of each dose is set forth based on the animal body weight, drug concentration, and drug volume. Finally, doses are scaled allometrically for body surface area (mg/m^2/d), as is appropriate for most low-molecular-weight molecules.

subcutaneous fat [4] = experiment: Histologic sections of skin and subcutaneous fat, (db-/db-) mice; type: in vivo; conditions: for adipocytes and adipose layer, treated (right) flank / adipocytes and adipose layer, untreated (left) flank: day 28; for local versus systemic effect by histology: topical, concentration up to 0.3%
Experimental: as §1
All sections are shown at the same magnification (scale bar at top right=640 microns). The surface of the skin is oriented toward the top and left of each panel. Arrows in each section denote the panniculus carnosus, an anatomic layer that separates the first layer of subdermal fat from deeper, subpannicular fat (separation artifact is commonly seen deep to the panniculus and is not an in vivo process).

[5] = obese adults, 120 mg three times daily, after two years; cited from earlier work
[6] = in vivo; cited from earlier work
[7] = Oral Glucose Tolerance Test on day 29, ZDF rats; type: in vivo; conditions: for oral glucose tolerance: day 29; for serum glucose AUC15-120 lower compared to vehicle-treated animals: 15 to 120 minutes post-glucose load
Experimental: (§3) Methods: Male ZDF rats, approximately 8 weeks old, were obtained from Jackson Laboratories and acclimated to the facility. There were 3 animals per treatment arm. Test articles were applied in a thin film to the right flank without occlusive dressings, at 0.3 ml daily for 28 days. Rats were fed ad libitum and housed in the same room in 4 cages according to group. […] Food consumption was measured by residual weight of chow. Animals were fasted overnight prior to day 29, and Oral Glucose Tolerance Tests were conducted on day 29 (1 g glucose per kg body weight). Skin tissue and serum chemistries were collected at day 29.

[8] = Minimum effective dose and projected systemic dose, rat (FIG. 12); type: in vivo
Description: These effects were dose-dependent, and the minimum effective dose for these effects was deemed to be the 0.05% concentration.
as §2

[9] = Serum lipid levels on day 29, ZDF rats; type: in vivo
Experimental: as §3

[10] = Clinical application: person with metabolic syndrome, latanoprost transdermal 0.7% gel (Example 7); type: in vivo, human; conditions: 2 ml once daily, 1 to 6 months
Experimental: The following description exemplifies a clinical application of the invention to treat obesity, dyslipidemia, and type 2 diabetes mellitus in a person with metabolic syndrome.
A person is suffers from obesity, dyslipidemia, and type 2 diabetes. […] Their waist circumference is 42 inches. Their noninvasive blood pressure is 184/98. Their fasting serum glucose is […] and their glycated hemoglobin (hemoglobin A1C) is 8.1. Fasting serum lipids are as follows: triglycerides, 220 mg/dL; total cholesterol, 310 mg/dL, LDL 240 mg/dL, HDL, 35 mg/dL. Their physical exam is notable for prominent central (abdominal) obesity. In addition to medical therapy, the person's physician recommends a regimen of diet and exercise. After six months the person's weight, hemoglobin A1C, serum glucose, and serum lipids are unimproved. The physician prescribes systemic therapy with latanoprost, for example, a transdermal 0.7% gel in a metered-dose dispenser, with instructions to apply 2 ml metered dose once daily to the skin of the shoulders. After a period of time, for example from 1 to 6 months, the person's weight is reduced. Serum glucose, hemoglobin A1C, fasting serum LDL, and fasting serum triglycerides also diminish. Fasting serum HDL rises.

subcutaneous fat [11] = experiment: Histologic sections of skin and subcutaneous fat, ZDF rats; type: in vivo
Experimental: as §3
All sections are shown at the same magnification (scale bar at top right=500 microns). The surface of the skin is oriented toward the top of each panel.

[12] = Weight gain, food consumption and condition, 4-week study of latanoprost transdermal cream in ZDF rats; type: in vivo; conditions: for mean weight gain for days 0 to 29: 0.3 ml daily, vs vehicle
Experimental: A controlled, repeat-dose, 4-week, dose-ranging study of latanoprost transdermal cream was conducted in Zucker Diabetic Fatty (ZDF) rats (ZDF-Lepr^fa/Crl), which are defective for the leptin receptor, obese, hyperlipidemic, and diabetic.
as §3

[13] = Human ophthalmic dose and projected human transdermal dose (FIG. 12); conditions: by comparison to minimum effective dose in the rat
Description: as §2

[14] = Clinical application: person with dyslipidemia, oral extended-release tafluprost (Example 8); type: in vivo, human; conditions: oral extended-release 5 mg daily, 1 to 6 months
Description: The following description exemplifies a clinical application of the invention to reduce lipid concentrations in a patient with dyslipidemia and a history of coronary artery disease and myocardial infarction. A person with a history of obesity, hyperlipidemia, coronary artery disease, and myocardial infarction is found to have elevated serum triglycerides, total cholesterol, and low density lipoprotein, despite use of a statin. The person's physician prescribes an oral, extended-release formulation of tafluprost, for example, an extended-release tablet comprising 5 mg tafluprost, with instructions to take one capsule by mouth daily. After a period of time, for example from 1 to 6 months, the person's serum triglycerides, total cholesterol, and low density lipoprotein concentrations are reduced. Body weight is also seen to improve.

[15] = transdermal/topical to right flank skin, vs vehicle
[16] = topical 0.5% and 0.05%, day 29, vs vehicle, not statistically significant

O=C(O)CCC/C=C\C[C@@H]1[C@@H](/C=C/[C@@H](O)CCc2ccccc2)[C@H](O)C[C@@H]1O [BFA, 17-phenyl trinor prostaglandin F2α]
serum lipids ([1]; intraperitoneal, day 28): no significant effect on serum lipids
serum lipids ([1]; subcutaneous, day 28): no significant effect on serum lipids
serum triglycerides ([1]; transdermal 0.1% or 0.3%, unfasted, day 28, vs control): significantly reduced
mean weight gain for days 0 to 28 ([2]; intraperitoneal): no significant effect on weight gain
mean weight gain for days 0 to 28 ([2]; subcutaneous, right flank): no significant effect on weight gain
mean weight gain for days 0 to 28 [2, 15]: reduced weight gain significantly and in a dose-dependent manner

CC(C)OC(=O)CCC/C=C\C[C@@H]1[C@@H](/C=C/[C@@H](O)CCc2ccccc2)[C@H](O)C[C@@H]1O [BIE, 17-phenyl trinor prostaglandin F2α isopropyl ester]
systemic dose at which serum lipids and obesity responded [3]: 10 mg/m^2/d
serum lipids ([1]; subcutaneous, day 28): no significant effect on serum lipids
serum total cholesterol ([1]; transdermal 0.1%, unfasted, day 28): significantly lower
adipocytes deep to the panniculus (subcutaneous fat [4]; topical 0.3%): profound shrinkage of adipocytes deep to the panniculus
adipocytes and adipose layer, treated (right) flank (subcutaneous fat [4]; topical 0.3%): smaller adipocytes and thinner adipocyte layers
adipocytes and adipose layer, untreated (left) flank (subcutaneous fat [4]; topical 0.3%): smaller adipocytes and thinner adipocyte layers
local versus systemic effect by histology (subcutaneous fat [4]): indicative of a systemic effect
mean weight gain for days 0 to 28 ([2]; subcutaneous, right flank): no significant effect on weight gain
potency of transdermal BIE relative to transdermal BFA, for each effect (weight gain, serum lipids) ([2]; transdermal): more potent
mean weight gain for days 0 to 28 [2, 15]: reduced weight gain significantly and in a dose-dependent manner

CCCCCCCCCCC[C@@H](C[C@@H]1OC(=O)[C@H]1CCCCCC)OC(=O)[C@H](CC(C)C)NC=O [Orlistat]
loss of baseline body weight [5]: 8.8%
serum lipids and serum glucose [5]: not accompanied by any absolute improvement in serum lipids or serum glucose

CCNC(=O)CCC/C=C\C[C@@H]1[C@@H](/C=C/[C@@H](O)CCc2ccccc2)[C@H](O)C[C@@H]1O [bimatoprost, 17-phenyl trinor prostaglandin F2α ethyl amide]
serum lipids ([1]; topical, day 28): no significant effect on serum lipids
adipocytes and adipose layer, treated (right) flank (subcutaneous fat [4]; topical 0.3%): smaller adipocytes and a thinner adipose layer
adipocytes and adipose layer, untreated (left) flank (subcutaneous fat [4]; topical 0.3%): resembled that of a vehicle-treated animal
local versus systemic effect by histology (subcutaneous fat [4]): local effect, but not a systemic effect

CC(C)OC(=O)CCC/C=C\C[C@@H]1[C@@H](CC[C@@H](O)CCc2ccccc2)[C@H](O)C[C@@H]1O [latanoprost, 17-phenyl-13,14-dihydro trinor prostaglandin F2α isopropyl ester]
serum elimination half-life [6]: about 17 minutes
oral glucose tolerance ([7]; topical 0.005%): no effect on oral glucose tolerance
serum glucose AUC15-120 lower compared to vehicle-treated animals ([7]; topical 0.05%): 12%
oral glucose tolerance ([7]; topical 0.5% and 0.05%): dose-dependent improvements in oral glucose tolerance
serum glucose AUC15-120 lower compared to vehicle-treated animals ([7]; topical 0.5%): 26%
minimum effective dose of topical latanoprost, as concentration ([8]; rat, equivalent of 0.05%): 0.5 mg/mL
systemic dose corresponding to minimum effective topical dose ([8]; rat, once-daily dosing, 100% serum bioavailability assumed, scaled for body surface area): 3.6 mg/m^2/d
minimum effective dose (concentration) for weight gain, serum lipids, glucose tolerance ([8]; transdermal, ZDF rat): 0.05%
serum lipid benefits (triglycerides, LDL, HDL, HDL:LDL ratio) ([9]; topical 0.005%, day 29): absent
HDL:LDL ratio ([9]; topical 0.5% and 0.05%, day 29, vs vehicle, 0.5% one-sided p<0.05): dose-dependent increases
serum HDL [9, 16]: dose-dependent increases
serum LDL [9, 16]: dose-dependent reductions
serum triglycerides [9, 16]: dose-dependent reductions
fasting serum HDL [10]: rises
serum glucose, hemoglobin A1C, fasting serum LDL, fasting serum triglycerides [10]: diminish
weight [10]: reduced
adipocytes and adipose layer, treated (right) flank (subcutaneous fat [11]; topical 0.005%): fewer and smaller adipocytes, and a thinner adipose layer
adipocytes and adipose layer, untreated (left) flank (subcutaneous fat [11]; topical 0.005%): resembled that of a vehicle-treated animal
local versus systemic effect by histology (subcutaneous fat [11]; topical 0.005%): local effect, but not a systemic effect
adipocytes, adipose layer and dermis, treated flank (subcutaneous fat [11]; topical 0.5%): fewer and smaller adipocytes, and thinner adipose layer and dermis
adipocytes, adipose layer and dermis, untreated flank (subcutaneous fat [11]; topical 0.5%): fewer and smaller adipocytes, and thinner adipose layer and dermis
local versus systemic effect by histology (subcutaneous fat [11]; topical 0.5%): indicative of a systemic effect
mean weight gain for days 0 to 29 ([12]; topical 0.005%): dose-dependent reductions in weight gain
daily observations and skin condition ([12]; topical 0.005-0.5%, 28 days): unremarkable
mean weight gain for days 0 to 29 ([12]; topical 0.05%): dose-dependent reductions in weight gain, which were statistically significant
mean weight gain for days 0 to 29 ([12]; topical 0.5%): dose-dependent reductions in weight gain, which were statistically significant
predicted human transdermal dose sufficient for systemic benefit (serum lipids, diabetic condition, obesity) [13]: about 7 mg per day

CC(C)OC(=O)CCC/C=C\C[C@@H]1[C@@H](/C=C/C(F)(F)COc2ccccc2)[C@H](O)C[C@@H]1O [tafluprost]
body weight [14]: improve
serum triglycerides, total cholesterol, low density lipoprotein concentrations [14]: reduced
